Target: Multidrug resistance-associated protein 1 (Homo sapiens, UniProt P33527)
Experiment: TP_TRANSPORTER: inhibition of LTC4 uptake (LTC4: 0.00134 uM, MS-209: 3 uM) in membrane vesicles from MKN45R0.8 cells
Type: functional, cell membranes, Membrane vesicle
Parameters: scale not given: the % may be the effect or the level left
Details: mkn45r0.8, 3 µM

Multidrug resistance-associated protein 1, sequence (P33527 whole entry): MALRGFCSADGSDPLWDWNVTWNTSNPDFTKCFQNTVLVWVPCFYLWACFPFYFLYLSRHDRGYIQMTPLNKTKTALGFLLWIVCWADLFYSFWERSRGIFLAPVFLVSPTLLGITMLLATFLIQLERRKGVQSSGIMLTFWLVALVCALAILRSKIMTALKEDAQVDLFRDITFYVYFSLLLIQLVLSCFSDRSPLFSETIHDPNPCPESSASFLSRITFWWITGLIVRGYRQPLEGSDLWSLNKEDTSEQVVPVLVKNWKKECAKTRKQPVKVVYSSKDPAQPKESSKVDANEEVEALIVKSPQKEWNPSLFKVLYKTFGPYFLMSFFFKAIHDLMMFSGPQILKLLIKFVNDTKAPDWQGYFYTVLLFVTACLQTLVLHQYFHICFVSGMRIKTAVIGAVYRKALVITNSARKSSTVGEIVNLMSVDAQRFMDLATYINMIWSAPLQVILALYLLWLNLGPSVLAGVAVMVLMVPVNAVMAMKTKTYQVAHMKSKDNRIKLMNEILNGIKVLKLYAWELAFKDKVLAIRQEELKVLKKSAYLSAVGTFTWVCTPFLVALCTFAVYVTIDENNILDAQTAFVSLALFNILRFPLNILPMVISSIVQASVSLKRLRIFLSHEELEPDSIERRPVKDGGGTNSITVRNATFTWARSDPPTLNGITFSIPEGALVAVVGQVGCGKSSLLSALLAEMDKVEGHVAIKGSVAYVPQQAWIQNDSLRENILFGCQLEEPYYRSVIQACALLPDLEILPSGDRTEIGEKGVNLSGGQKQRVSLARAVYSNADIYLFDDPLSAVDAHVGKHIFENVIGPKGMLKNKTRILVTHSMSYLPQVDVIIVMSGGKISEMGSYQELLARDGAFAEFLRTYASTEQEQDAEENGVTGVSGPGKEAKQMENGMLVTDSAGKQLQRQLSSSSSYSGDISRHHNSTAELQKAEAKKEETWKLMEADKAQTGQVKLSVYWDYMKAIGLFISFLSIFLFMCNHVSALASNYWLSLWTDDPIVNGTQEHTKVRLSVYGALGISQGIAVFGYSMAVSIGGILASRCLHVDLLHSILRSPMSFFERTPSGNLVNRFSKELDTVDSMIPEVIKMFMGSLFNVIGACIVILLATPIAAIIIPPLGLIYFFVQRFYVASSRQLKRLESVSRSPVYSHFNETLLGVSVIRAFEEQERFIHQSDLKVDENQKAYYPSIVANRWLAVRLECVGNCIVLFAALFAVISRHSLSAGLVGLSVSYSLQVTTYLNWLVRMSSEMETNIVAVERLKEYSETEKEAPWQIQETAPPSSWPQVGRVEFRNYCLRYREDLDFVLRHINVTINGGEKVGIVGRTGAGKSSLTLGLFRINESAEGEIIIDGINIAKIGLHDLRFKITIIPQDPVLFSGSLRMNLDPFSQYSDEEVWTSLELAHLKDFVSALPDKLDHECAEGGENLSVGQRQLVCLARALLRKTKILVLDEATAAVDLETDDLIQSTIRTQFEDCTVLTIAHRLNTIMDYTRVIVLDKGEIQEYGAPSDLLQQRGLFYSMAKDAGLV

**Q.** With `O=C(C(c1ccccc1)c1ccccc1)N1CCN(C[C@@H](O)COc2cccc3ncccc23)CC1` as the compound, how does the Activity read?
**A.** 20%

Source: ChEMBL document CHEMBL2074028, “Direct interaction between a quinoline derivative, MS-209, and multidrug resistance protein (MRP) in human gastric cancer cells” (Biochem Biophys Res Commun, 1999)
